In the supplement of paper PMC10307832:

Assays:
Assay in all cases: relative viability (nuclei count vs DMSO), 5 days (fraction); higher = more cells survive
Doramapimod + Phenformin = compound: Cc1ccc(-n2nc(C(C)(C)C)cc2NC(=O)Nc2ccc(OCCN3CCOCC3)c3ccccc23)cc1 [Doramapimod] + N=C(N)NC(=N)NCCc1ccccc1 [Phenformin] (partner 250 µM)
Procedure, shortened: (§1)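 Five library-drug doses in √10 steps were combined with a fixed anchor-drug dose, or a single drug was given alone, by pin tool to lung cancer cell lines in 1536-well plates the day after seeding. Nuclei were stained and counted after 5 days. Relative viability is the nuclei count in treated wells over that in vehicle wells, taken as the median of duplicate plates.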

IPA-3 + Tozasertib = compound: C1=CC=C2C(=C1)C=CC(=C2SSC3=C(C=CC4=CC=CC=C43)O)O [IPA-3] + Cc1cc(Nc2cc(N3CCN(C)CC3)nc(Sc3ccc(NC(=O)C4CC4)cc3)n2)n[nH]1 [Tozasertib] (partner 0.1 µM)
Procedure, shortened: as §1

Doramapimod + Decitabine = compound: Cc1ccc(-n2nc(C(C)(C)C)cc2NC(=O)Nc2ccc(OCCN3CCOCC3)c3ccccc23)cc1 [Doramapimod] + Nc1ncn([C@H]2C[C@H](O)[C@@H](CO)O2)c(=O)n1 [Decitabine] (partner 2 µM)
Procedure, shortened: as §1

IPA-3 + Bortezomib = compound: C1=CC=C2C(=C1)C=CC(=C2SSC3=C(C=CC4=CC=CC=C43)O)O [IPA-3] + CC(C)C[C@H](NC(=O)[C@H](Cc1ccccc1)NC(=O)c1cnccn1)B(O)O [Bortezomib] (partner 0.002 µM)
Procedure, shortened: as §1

Cell Line	relative viability (Doramapimod + Phenformin; first compound 0.02 µM)	relative viability (Doramapimod + Phenformin; first compound 0.06325 µM)	relative viability (Doramapimod + Phenformin; first compound 0.2 µM)	relative viability (Doramapimod + Phenformin; first compound 0.6325 µM)	relative viability (Doramapimod + Phenformin; first compound 2 µM)	relative viability (IPA-3 + Tozasertib; first compound 0.2 µM)	relative viability (IPA-3 + Tozasertib; first compound 0.6325 µM)	relative viability (IPA-3 + Tozasertib; first compound 2 µM)	relative viability (IPA-3 + Tozasertib; first compound 6.325 µM)	relative viability (IPA-3 + Tozasertib; first compound 20 µM)	relative viability (Doramapimod + Decitabine; first compound 0.02 µM)	relative viability (Doramapimod + Decitabine; first compound 0.06325 µM)	relative viability (Doramapimod + Decitabine; first compound 0.2 µM)	relative viability (Doramapimod + Decitabine; first compound 0.6325 µM)	relative viability (Doramapimod + Decitabine; first compound 2 µM)	relative viability (IPA-3 + Bortezomib; first compound 0.2 µM)	relative viability (IPA-3 + Bortezomib; first compound 0.6325 µM)	relative viability (IPA-3 + Bortezomib; first compound 2 µM)	relative viability (IPA-3 + Bortezomib; first compound 6.325 µM)	relative viability (IPA-3 + Bortezomib; first compound 20 µM)
NCI-H1355	0.423	0.467	0.454	0.421	0.415	0.596	0.566	0.599	0.586	0.656	0.372	0.357	0.347	0.407	0.359	1.44	1.25	1.18	1.16	1.3
NCI-H1437	0.359	0.271	0.3	0.275	0.273	0.482	0.387	0.416	0.394	0.468	0.541	0.554	0.647	0.624	0.598	1.09	0.467	0.443	0.438	0.587
NCI-H1650	0.464	0.419	0.482	0.655	0.233	0.485	0.414	0.489	0.421	0.517	0.412	0.409	0.515	0.409	0.283	0.223	0.193	0.186	0.283	0.27
NCI-H1651	0.323	0.317	0.348	0.415	0.45	0.727	0.613	0.883	0.708	0.691	0.632	0.678	0.608	0.569	0.608	1.02	0.912	0.998	1.04	1.06
NCI-H1666	0.601	0.555	0.61	0.581	0.554	0.611	0.604	0.594	0.6	0.703	0.768	0.792	0.83	0.659	0.755	0.903	0.808	0.887	0.76	0.73
NCI-H1734	0.332	0.344	0.344	0.355	0.289	0.275	0.269	0.251	0.306	0.23	0.476	0.47	0.489	0.51	0.363	0.973	0.812	1.03	0.995	0.87
NCI-H1755	0.577	0.596	0.6	0.541	0.559	0.586	0.568	0.552	0.561	0.504	0.778	0.753	0.711	0.666	0.706	1.02	0.905	0.946	0.997	1.08
NCI-H1915	0.362	0.357	0.375	0.348	0.298	0.466	0.425	0.446	0.428	0.513	0.24	0.256	0.256	0.261	0.255	1.15	0.974	0.952	0.971	1.09
NCI-H1975	0.41	0.382	0.411	0.415	0.397	0.833	0.685	0.855	0.906	0.755	0.384	0.451	0.335	0.386	0.301	0.373	0.375	0.387	0.421	0.481
NCI-H1993	0.512	0.484	0.543	0.542	0.548	0.625	0.578	0.586	0.56	0.601	0.537	0.578	0.511	0.668	0.53	1.04	1.14	1.14	1.1	1.21
NCI-H2009	0.506	0.543	0.546	0.478	0.408	0.805	0.681	0.834	0.718	0.725	0.35	0.408	0.45	0.384	0.329	1.27	0.95	1.09	0.943	0.715
NCI-H2023	0.413	0.379	0.404	0.415	0.323	0.321	0.347	0.365	0.39	0.424	0.233	0.211	0.263	0.218	0.216	1.19	0.9	1.05	1.17	1.11
NCI-H2085	0.758	0.623	0.592	0.705	0.661	0.907	0.748	0.823	0.908	0.951	0.612	0.526	0.563	0.584	0.56	1.19	0.99	1.01	0.937	1.27
NCI-H2087	0.403	0.459	0.411	0.415	0.412	0.273	0.349	0.274	0.221	0.253	0.286	0.206	0.277	0.232	0.201	1.04	0.796	0.828	0.749	0.838
NCI-H2126	0.527	0.526	0.505	0.496	0.489	0.922	0.78	0.875	0.842	0.872	0.561	0.57	0.543	0.614	0.55	1.19	1.11	1.13	1.11	1.19
NCI-H2347	0.429		0.429	0.386	0.398	0.585	0.598	0.614	0.593	0.656	0.671	0.604	0.626	0.656	0.634	0.916	1.01	1.12	0.937	1.3
